According to patent US11752195B2, “Compositions and methods of use of synthetic peptides with Mycobacterium abscessus inhibitory activity” (priority 2021, dated 2023):
≈ marks a conversion by molar mass, not a printed value. Where two headings read alike, the source gives them in different places. Peptide text beside a SMILES is read from it.

Columns and labels:
[1] = tested on: Mabs 19977R (rough morphotype); assay: Growth inhibition screen with unpurified peptides in M7H9, MHB, CAMHB; type: cell-based, Mycobacterium abscessus; details: unpurified peptide 100 μM
Procedure: (§1) Mabs ATCC 19977 smooth morphotype (Mabs 19977S) cells were cultured at 37° C. in Middlebrook 7H9 supplemented with albumin, dextrose, and catalase (ADC) (10%), Tween 80 (0.05%), and glycerol (0.2%) (herein referred to as M7H9). Mabs 19977S was exposed to clarithromycin (8 μg/ml) in M7H9 for 24 h at 37° C., subjected to serial dilutions and plated on Middlebrook 7H10 agar supplemented with oleic acid, albumin, dextrose, and catalase (OADC) (herein referred to as M7H10). After 5 d incubation at 37° C., a single, isolated colony displaying a rough morphotype (Mabs 19977R) was detected, grown, and stored at −70° C. Mabs 19977S and Mabs 19977R were grown for approximately 32 h at 37° C., diluted 1:100 in fresh, pre-warmed M7H9, and grown for an additional 14 h until the cultures reached early-to-mid-logarithmic phase (OD600=0.2-0.3).
(§2) Bacteria grown in M7H9, MHB, and cation-adjusted MHB (CAMHB) were used to identify unpurified peptides with inhibitory activity against Mabs 19977S and Mabs 19977R. Peptides (50-65% purity) were synthesized by Sigma Aldrich (St. Louis, Mo.) PEPscreen Custom Peptide Libraries. Mabs ATCC 19977S and ATCC 19977R mid-logarithmic phase cultures were centrifuged (3,715×g) for 2 min, washed in pre-warmed M7H9, re-suspended in M7H9, MHB, or CAMHB, and diluted to 10^6 CFU/ml. In a 96-well polystyrene microtiter plate, media (M7H9, MHB, or CAMHB), unpurified peptides (100 μM or 10 μM), ethylenediaminetetraacetic acid (EDTA) (100 μM), and cells (Mabs 19977S or Mabs 19977R) (10^5 CFU/ml) were added. EDTA was added to determine if metal ion chelation would alter peptide activity. Clarithromycin (4 μg/ml) was used as an antibiotic positive control. The 96-well microtiter plates were statically incubated at 37° C. for 72 h. The OD600 was measured every 24 h using a SpectraMax M2 microplate reader (Molecular Devices, San Jose, Calif., USA). Peptides that reduced Mabs growth by ≥50%, when compared to the growth control OD600, were considered active.
(§3) In culture medium with cation supplementation (CAMHB), ASU2060 (100 μM) had activity against both morphotypes when EDTA was added (FIG. 2F). […] There were no peptides with inhibitory activity in CAMHB without EDTA (FIG. 2E).

[2] = tested on: Mabs 19977S (Mabs ATCC 19977 smooth morphotype); assay: as above; type: cell-based, Mycobacterium abscessus; details: unpurified peptide 100 μM
Procedure: as §1, §2, §3

[3] = tested on: Mabs 19977R; details: 96 h
Procedure: (§4) In order to determine effects on Mabs viability, microdilution antimicrobial assays were performed in MHB.

[4] = tested on: Mabs 19977S; details: purified peptide, MHB with EDTA (100 μM), 96 h, 37° C.
Procedure: as §4

[5] = tested on: E. coli ATCC 25922; type: cell-based, Escherichia coli; details: ATCC 25922, 22 h
Procedure: Samples were serially diluted in MHB to ˜10^5 CFU/ml and added to a 96-well polystyrene plate prepared with ASU2060 (128-4 μM). After incubation for 22 h at 37° C., the OD600 was measured using a SpectraMax M2 microplate reader (Molecular Devices, San Jose, Calif., USA). Values were normalized to the medium blank (MHB) and E. coli (ATCC 25922) treated with nitrofurantoin at 64 μM.

[6] = tested on: E. coli clinical isolates
Excerpt: (approved by Mayo Clinic Biospecimen Subcommittee BIO00015462).

[7] = tested on: human red blood cell (hRBC); assay: Human red blood cell (hRBC) hemolytic assay; type: cell-based
Procedure: To determine if the purified, Mabs inhibitory peptides were toxic, human red blood cell (hRBC) hemolytic assays were performed. Peptides (at 1×, 2×, and 4× their respective Mabs 19977S MICs) were added to 4% hRBC in saline and statically incubated for 1 h or 18 h at 37° C. […] Following incubation, the peptide-hRBC mixtures and the 1% Triton X-100 positive controls were centrifuged for 1 min at 1,000×g to pellet the intact hRBC. The supernatant for each experimental mixture and control was removed, and OD475 measurements were recorded to determine the percentage of lysed hRBC. The percentage of hemolytic activity was normalized by comparing the supernatant absorbance of all conditions tested to an equivalent number of hRBC lysed with 1% Triton X-100 (Eq. 1) (50).

[8] = purified peptide, MHB with EDTA (100 μM), 37° C.

`CC(C)C[C@@H](NC(=O)[C@@H](C)NC(=O)CNC(=O)[C@@H](CC(C)C)NC(=O)[C@@H](CCCCN)NC(=O)[C@@H](CCCNC(=N)N)NC(=O)[C@@H](CCCNC(=N)N)NC(=O)[C@H](CC(N)=O)NC(=O)[C@H](Cc1ccc(O)cc1)NC(=O)[C@@H](CCCNC(=N)N)NC(=O)[C@H](C)NC(=O)[C@H](CO)NC(=O)[C@@H](CCCNC(=N)N)NC(=O)CNC(=O)[C@@H](N)Cc1ccc(O)cc1)C(=O)N[C@@H](CO)C(=O)NCC(=O)O` [ASU2059, YGrSArYNrrklGalSG] (HELM PEPTIDE1{Y.G.[dR].S.A.[dR].Y.N.[dR].[dR].[dK].[dL].G.[dA].[dL].S.G}$$$$V2.0) was tested, and the “activity (growth reduced by ≥50% vs growth control OD600)” value ([1]; M7H9, with EDTA (100 μM)) was “exhibited activity”, the “activity (growth reduced by ≥50% vs growth control OD600)” value ([1]; MHB, with EDTA) was “maintained activity” and the “activity (growth reduced by ≥50% vs growth control OD600)” value ([2]; M7H9, with EDTA (100 μM)) was “exhibited activity”. For the same compound, the “activity (growth reduced by ≥50% vs growth control OD600)” value ([2]; MHB, with EDTA) was “maintained activity”.

For `CC(C)C[C@@H](NC(=O)[C@@H](C)NC(=O)[C@@H](CCCCN)NC(=O)[C@@H](CCCNC(=N)N)NC(=O)[C@H](Cc1ccccc1)NC(=O)[C@H](CCC(N)=O)NC(=O)[C@H](CC(N)=O)NC(=O)[C@@H](NC(=O)[C@@H](CCCCN)NC(=O)[C@@H](CCCNC(=N)N)NC(=O)[C@H](C)NC(=O)[C@@H](CCCCN)NC(=O)[C@H](CO)NC(=O)[C@@H](CC(C)C)NC(=O)CNC(=O)[C@H](Cc1ccc(O)cc1)NC(=O)[C@H](N)CCCNC(=N)N)C(C)C)C(N)=O` [ASU2009, rYGlSkArkVNQFrkal] (HELM PEPTIDE1{[dR].Y.G.[dL].S.[dK].A.[dR].[dK].V.N.Q.F.[dR].[dK].[dA].[dL].[am]}$$$$V2.0), the “activity (growth reduced by ≥50% vs growth control OD600)” value ([1]; M7H9, with EDTA (100 μM)) was “exhibited activity”, the “activity (growth reduced by ≥50% vs growth control OD600)” value ([1]; MHB, with EDTA) was “maintained activity” and the “activity (growth reduced by ≥50% vs growth control OD600)” value ([2]; M7H9, with EDTA (100 μM)) was “exhibited activity”. The “activity (growth reduced by ≥50% vs growth control OD600)” value ([2]; MHB, with EDTA) was “maintained activity”.

`CC(C)C[C@@H](NC(=O)CNC(=O)[C@H](CO)NC(=O)[C@@H](CCCCN)NC(=O)[C@@H](CCCNC(=N)N)NC(=O)[C@@H](Cc1c[nH]c2ccccc12)NC(=O)[C@@H](CCCNC(=N)N)NC(=O)[C@H](Cc1ccccc1)NC(=O)[C@H](CC(N)=O)NC(=O)[C@H](Cc1ccc(O)cc1)NC(=O)[C@@H](CCCNC(=N)N)NC(=O)[C@H](C)NC(=O)[C@H](CO)NC(=O)[C@@H](Cc1c[nH]c2ccccc12)NC(=O)[C@@H](CCCNC(=N)N)NC(=O)CNC(=O)[C@@H](N)C(C)C)C(N)=O` [ASU2060, VGrwSArYNFrwrkSGl] (HELM PEPTIDE1{V.G.[dR].[dW].S.A.[dR].Y.N.F.[dR].[dW].[dR].[dK].S.G.[dL].[am]}$$$$V2.0; N-terminus and C-terminus assumed) gave an IC50 [3, 8] of 13 µM, an MIC [4] of 8 µM (≈ 17.1 µg/mL) and an MIC [5] of 4 µM (≈ 8.55 µg/mL). The “ASU2060 MIC” value ([6]; E. coli clinical isolate 23) was 8 µM, the “ASU2060 MIC” value ([6]; E. coli clinical isolate 36) was 8 µM and the “ASU2060 MIC” value ([6]; E. coli clinical isolate 45) was 8 µM. The “ASU2060 MIC” value ([6]; E. coli clinical isolate 47) was 8 µM, the “ASU2060 MIC” value ([6]; E. coli clinical isolate 97) was 8 µM and the “ASU2060 MIC” value ([6]; E. coli clinical isolate 98) was 8 µM.

For Triton X-100 [reference compound], the “hRBC lysis by positive control” value ([7]; Triton X-100 1%, 4% hRBC) was “complete hRBC lysis”.

`CC(C)[C@H](NC(=O)[C@@H](CCCCN)NC(=O)[C@H](C)NC(=O)[C@@H](C)NC(=O)[C@@H](CCCCN)NC(=O)[C@H](CO)NC(=O)[C@@H](CCCNC(=N)N)NC(=O)CNC(=O)[C@H](CC(N)=O)NC(=O)[C@H](Cc1ccccc1)NC(=O)[C@@H](N)CCC(N)=O)C(=O)N[C@@H](CC(N)=O)C(=O)N[C@@H](Cc1ccccc1)C(=O)N[C@H](Cc1c[nH]c2ccccc12)C(=O)N[C@H](CCCNC(=N)N)C(=O)N[C@H](CCCCN)C(=O)N[C@H](C)C(=O)O` [ASU2001, QFNGrSkaAkVNFwrka] (HELM PEPTIDE1{Q.F.N.G.[dR].S.[dK].[dA].A.[dK].V.N.F.[dW].[dR].[dK].[dA]}$$$$V2.0) was tested, and the “activity (growth reduced by ≥50% vs growth control OD600)” value ([1]; M7H9, with EDTA (100 μM)) was “exhibited activity”, the “activity (growth reduced by ≥50% vs growth control OD600)” value ([1]; M7H9, without EDTA) was “exhibited activity” and the “activity (growth reduced by ≥50% vs growth control OD600)” value ([1]; MHB, with EDTA) was “maintained activity”. The “activity (growth reduced by ≥50% vs growth control OD600)” value ([2]; M7H9, with EDTA (100 μM)) was “exhibited activity” and the “activity (growth reduced by ≥50% vs growth control OD600)” value ([2]; MHB, with EDTA) was “maintained activity”.

`CC(C)C[C@@H](NC(=O)CNC(=O)[C@@H](Cc1c[nH]c2ccccc12)NC(=O)[C@@H](CCCNC(=N)N)NC(=O)[C@@H](N)CCC(N)=O)C(=O)N[C@@H](CO)C(=O)N[C@H](CC(C)C)C(=O)N[C@@H](C)C(=O)N1CCC[C@H]1C(=O)N[C@@H](Cc1ccc(O)cc1)C(=O)N[C@H](CCCCN)C(=O)N[C@@H](CC(N)=O)C(=O)N[C@@H](Cc1ccccc1)C(=O)N[C@H](CCCNC(=N)N)C(=O)N[C@H](CCCNC(=N)N)C(=O)N[C@H](CC(C)C)C(=O)N[C@@H](CO)C(N)=O` [ASU2056, QrwGlSlAPYkNFrrlS] (HELM PEPTIDE1{Q.[dR].[dW].G.[dL].S.[dL].A.P.Y.[dK].N.F.[dR].[dR].[dL].S.[am]}$$$$V2.0; N-terminus and C-terminus assumed) was tested, and the “relative hRBC toxicity among the six peptides” value [7] was “the least toxicity”, the IC50 [3, 8] was 45 µM and the MIC [4] was 32 µM (≈ 66.9 µg/mL).

For `CC(C)C[C@@H](NC(=O)[C@@H](C)NC(=O)[C@H](CO)NC(=O)[C@@H](CCCCN)NC(=O)[C@@H](CCCNC(=N)N)NC(=O)[C@@H](CCCNC(=N)N)NC(=O)[C@H](Cc1ccccc1)NC(=O)[C@@H](CC(C)C)NC(=O)[C@H](CC(N)=O)NC(=O)[C@H](Cc1c[nH]cn1)NC(=O)[C@@H]1CCCN1C(=O)[C@H](C)NC(=O)[C@H](CO)NC(=O)[C@@H]1CCCN1C(=O)CNC(=O)[C@@H](NC(=O)[C@H](N)CCCNC(=N)N)C(C)C)C(N)=O` [ASU2019] (HELM PEPTIDE1{[dR].V.G.P.S.A.P.H.N.[dL].F.[dR].[dR].[dK].S.[dA].[dL].[am]}$$$$V2.0; N-terminus and C-terminus assumed), the “relative hRBC toxicity among the six peptides” value [7] was “the most toxicity”, the IC50 [3] was 76 to 82 µM and the MIC [4] was 256 µM (≈ 488 µg/mL).
